Assay results reported in patent US11453677B2 (priority 2016, dated 2022).

Assays:
Format in all cases: cell-based
[1] = test system: influenza virus H3N2 in MDCK cells; conditions: MOI 0.005, 48 hours, neuraminidase activity, read-out: NA_VIR_H3N2 EC50
Description: (§1) Influenza Virus Neuraminidase Assay (NA Assay)

[2] = test system: influenza virus H1N1 in MDCK cells; conditions: MOI 0.005, 48 hours, neuraminidase activity, read-out: NA_VIR_H1N1 EC50
Description: as §1

[3] = test system: influenza A virus minigenome (PB2, PB1, PA, NP) RNP_CAL in 293T cells; assay: cells; conditions: HEK-293T, 48 h, read-out: RNP_CAL_EC50
[4] = test system: influenza virus minigenome (PB2, PB1, PA, NP) RNP_Hubei in 293T cells; assay: cells; conditions: unidentified influenza virus, HEK-293T, 48 h, read-out: RNP_Hubei EC50
[5] = test system: influenza A virus minigenome (PB2, PB1, PA, NP) RNP_Alaska in 293T cells; assay: cells; conditions: HEK-293T, 48 h, read-out: RNP_Alaska EC50

| SMILES | EC50 [1] [nM] | EC50 [2] [nM] | EC50 [3] [nM] | EC50 [4] [nM] | EC50 [5] [nM] |
| --- | --- | --- | --- | --- | --- |
| CNC(=O)c1cnc2n1C[C@H](C(c1ccccc1)c1ccccc1)n1ccc(=O)c(O)c1-2 [Example 69, (S)-6-benzhydryl-11-hydroxy-N-methyl-10-oxo-5,6-dihydro-10H-imidazo[1,2-a]pyrido[2,1-c]pyrazine-3-carboxamide] | > 50000 | – | – | – | – |
| Cn1cnc2c1CN(C(c1ccccc1)c1ccccc1)n1ccc(=O)c(O)c1-2 [Example 82, 5-benzhydryl-10-hydroxy-3-methyl-4,5-dihydroimidazo[4,5-d]pyrido[1,2-b]pyridazin-9(3H)-one] | 4000 | 1000 | – | – | – |
| O=c1ccn2c(c1O)-c1ncc(CN3CCOCC3)n1C[C@@H]2C(c1ccccc1)c1ccccc1 [Example 67, (S)-6-benzhydryl-11-hydroxy-3-(morpholinomethyl)-5,6-dihydro-10H-imidazo[1,2-a]pyrido[2,1-c]pyrazin-10-one] | 10000 | – | – | – | – |
| COCCNC(=O)c1cnc2n1C[C@H](C(c1ccccc1)c1ccccc1)n1ccc(=O)c(O)c1-2 [Example 71, (S)-6-benzhydryl-11-hydroxy-N-(2-methoxyethyl)-10-oxo-5,6-dihydro-10H-imidazo[1,2-a]pyrido[2,1-c]pyrazine-3-carboxamide] | > 50000 | – | – | – | – |
| O=c1ccn2c(c1O)-c1nccn1C1(COC1)N2C1c2ccccc2CSc2ccccc21 (stereo not drawn) [Example 80, 6-(6,11-dihydrodibenzo[b,e]thiepin-11-yl)-11-hydroxy-6H,10H-spiro[imidazo[1,2-d]pyrido[2,1-f][1,2,4]triazine-5,3′-oxetan]-10-one] | – | – | 10 | 27 | 170 |
| O=c1cnn2c(c1O)-c1nccn1C[C@@H]2[C@H](c1ccc(F)cc1)c1ccc(F)cc1Br [Example 39, (S)-6-((R)-(2-bromo-4-fluorophenyl)(4-fluorophenyl)methyl)-11-hydroxy-5,6-dihydro-10H-imidazo[2′,1′:3,4]pyrazino[1,2-b]pyridazin-10-one] | – | – | 33 | 53 | 25 |
| O=c1ccn2c(c1O)-c1ncc(C(F)(F)F)n1C[C@@H]2C(c1ccccc1)c1ccccc1 [Example 58, (S)-6-benzhydryl-11-hydroxy-3-(trifluoromethyl)-5H-imidazo[1,2-a]pyrido[2,1-c]pyrazin-10(6H)-one] | – | 200 | – | – | – |
| O=c1cnn2c(c1O)-c1nccn1C[C@@H]2[C@H](c1ccc(F)cc1)c1cccc(F)c1 [Example 26, (S)-6-((R)-(3-fluorophenyl)(4-fluorophenyl)methyl)-11-hydroxy-5,6-dihydro-10H-imidazo[2′,1′:3,4]pyrazino[1,2-b]pyridazin-10-one] | – | – | 38 | 51 | 27 |
| O=c1cnn2c(c1O)-c1nccn1CC2C(c1cccc(F)c1)c1cccc(F)c1 (stereo not drawn) [Example 2, 6-(bis(3-fluorophenyl)methyl)-11-hydroxy-5,6-dihydro-10H-imidazo[2′,1′:3,4]pyrazino[1,2-b]pyridazin-10-one] | – | – | 110 | 90 | 110 |
| O=c1cnn2c(c1O)-c1nc(Br)c(Br)n1C[C@@H]2C(c1ccc(F)cc1)c1ccc(F)cc1 [Example 48, (S)-6-(bis(4-fluorophenyl)methyl)-2,3-dibromo-11-hydroxy-5,6-dihydro-10H-imidazo[2′,1′:3,4]pyrazino[1,2-b]pyridazin-10-one] | – | – | 4300 | 12000 | 5000 |
| Cc1ccccc1[C@H](c1ccc(F)cc1Br)[C@H]1Cn2ccnc2-c2c(O)c(=O)cnn21 [Example 35, (S)-6-((R)-(2-bromo-4-fluorophenyl)(o-tolyl)methyl)-11-hydroxy-5,6-dihydro-10H-imidazo[2′,1′:3,4]pyrazino[1,2-b]pyridazin-10-one] | – | – | 50 | 110 | 98 |
| Cc1cc(F)ccc1[C@H](c1ccc(F)cc1)[C@H]1Cn2ccnc2-c2c(O)c(=O)cnn21 [Example 27, (S)-6-((S)-(4-fluoro-2-methylphenyl)(4-fluorophenyl)methyl)-11-hydroxy-5,6-dihydro-10H-imidazo[2′,1′:3,4]pyrazino[1,2-b]pyridazin-10-one] | – | – | 50 | 27 | 50 |
| CC1(C)N(C(c2ccccc2)c2ccccc2)n2ccc(=O)c(O)c2-c2nccn21 [Example 75, 6-benzhydryl-11-hydroxy-5,5-dimethyl-5,6-dihydro-10H-imidazo[1,2-d]pyrido[2,1-f][1,2,4]triazin-10-one] | – | – | 300 | 400 | 480 |
| O=c1ccn2c(c1O)-c1ncc(CNC3CCOCC3)n1C[C@@H]2C(c1ccccc1)c1ccccc1 [Example 65, (S)-6-benzhydryl-11-hydroxy-3-(((tetrahydro-2H-pyran-4-yl)amino)methyl)-5,6-dihydro-10H-imidazo[1,2-a]pyrido[2,1-c]pyrazin-10-one] | – | – | 3500 | 4900 | 4800 |
| O=c1cnn2c(c1O)-c1nccn1C[C@H]2C(c1cccc(Cl)c1)c1cccc(Cl)c1 [Example 16, (R)-6-(bis(3-chlorophenyl)methyl)-11-hydroxy-5H-imidazo[2′,1′:3,4] pyrazino [1,2-b]pyridazin-10(6H)-one] | – | – | 820 | 950 | 960 |
| O=c1cnn2c(c1O)-c1nccn1C[C@@H]2[C@H](c1ccc(F)cc1)c1ccc(C(F)(F)F)nc1 [Example 20, (S)-6-((R)-(4-fluorophenyl)(6-(trifluoromethyl)pyridin-3-yl)methyl)-11-hydroxy-5,6-dihydro-10H-imidazo[2′,1′:3,4]pyrazino[1,2-b]pyridazin-10-one] | – | – | 720 | 740 | 690 |
| O=c1ccn2c(c1O)-c1ocnc1CN2C(c1ccccc1)c1ccccc1 [Example 84, 5-benzhydryl-10-hydroxy-4,5-dihydro-9H-oxazolo[5,4-d]pyrido[1,2-b]pyridazin-9-one] | – | – | 11000 | 16000 | 14000 |
| O=c1ccn2c(c1O)-c1nccn1CN2C1c2ccccc2CSc2ccccc21 (stereo not drawn) [Example 74, 6-(6,11-dihydrodibenzo[b,e]thiepin-11-yl)-11-hydroxy-5,6-dihydro-10H-imidazo[1,2-d]pyrido[2,1-f][1,2,4]triazin-10-one] | – | – | 84 | 260 | 130 |
| O=c1cnn2c(c1O)-c1nccn1C[C@@H]2C(c1cccc(Cl)c1)c1cccc(Cl)c1 [Example 15, (S)-6-(bis(3-chlorophenyl)methyl)-11-hydroxy-5H-imidazo [2′,1′:3,4] pyrazino [1,2-b]pyridazin-10(6H)-one] | – | – | 25 | 19 | 40 |
